Reference: patent US20170029355A1, “LABILE ESTERS OF AGROCHEMICALS FOR CONTROLLED RELEASE AND REDUCTION OF OFF-SITE MOVEMENT” (Monsanto Technology LLC, priority 2011, published 2017)

How the values were obtained:
[1] = system: velvetleaf; experiment: Greenhouse post-emergent control of velvetleaf by emulsifiable concentrates (Example 29); type: in vivo; conditions: three weeks after treatment
Procedure: (§1) The efficacy of some photo-labile ester formulations from Example 28 for post-emergent control of velvetleaf was tested in the greenhouse. All formulations were tested at rates of 140, 280, 420, and 560 g dicamba equivalent per hectare rates and compared to the diglycolamine salt of dicamba (CLARITY®) at the same rates and untreated control plants. The velvetleaf plants were 10-15 cm in height at the time of spraying. Percent control was evaluated three weeks after treatment.

[2] = system: velvetleaf; experiment: Greenhouse post-emergent control of velvetleaf by emulsifiable concentrates (Example 30); type: in vivo
Procedure: as §1
The methodology of Example 29 was used to evaluate the efficacy of several photo-labile esters of dicamba for post-emergent control of velvetleaf as emulsifiable concentrate formulations described in Example 28.

[3] = system: glyphosate-tolerant, dicamba-sensitive soy plants; experiment: Humidome volatility injury to dicamba-sensitive plants (Example 31); conditions: in vivo
Text: In this case, the diglycolamine salt of dicamba (CLARITY®) was used for comparison.
Dicamba photo-labile ester formulations from Example 28 were mixed with a commercial glyphosate formulation (ROUNDUP POWERMAX®) and diluted to provide a solution with a 0.5% dicamba equivalent concentrate of the ester (or dicamba diglycolamine salt) and 1.5% concentrate of glyphosate. The mixtures were sprayed at a 10 gallon per acre (93.5 liters per hectare) rate on soil in a plastic container (“humidome”) with a transparent lid. One soil container was sprayed with water as a control. Four glyphosate-tolerant, dicamba-sensitive soy plants between V2 and V3 stage were immediately placed on the sprayed soil and the domes attached to the trays with binder clips. The soy plants were in pots placed directly on the soil but with aluminum foil wrapped around the bottom to prevent uptake of dicamba or dicamba esters through the roots.
The closed containers were held for 24 hours in a growth chamber which was maintained at 35° C. with 40% relative humidity. The plants were then removed and grown in a greenhouse for three weeks. At this time plant injury and growth stage were assessed compared to the control treated with water only.

[4] = system: soybeans; experiment: Humidome volatility injury, ester 32a emulsifiable concentrate (Example 32); conditions: in vivo
Text: […] The mixtures were sprayed at a 10 gallon per acre (93.5 liters per hectare) rate on soil in a plastic container (“humidome”) with a transparent lid. One soil container was sprayed with water as a control. Four glyphosate-tolerant, dicamba-sensitive soy plants between V2 and V3 stage were immediately placed on the sprayed soil and the domes attached to the trays with binder clips. The soy plants were in pots placed directly on the soil but with aluminum foil wrapped around the bottom to prevent uptake of dicamba or dicamba esters through the roots.
The closed containers were held for 24 hours in a growth chamber which was maintained at 35° C. with 40% relative humidity. […] At this time plant injury and growth stage were assessed compared to the control treated with water only.

[5] = Field dicamba volatility, airborne dicamba collected by air samplers (Example 34); type: physicochemical; conditions: field plot, 0.5 lb/acre dicamba a.e. with ROUNDUP WEATHERMAX, airborne dicamba collected over 24 hours, maximum 86° F.
[6] = system: velvetleaf; experiment: Greenhouse post-emergent control of velvetleaf by emulsifiable concentrates (Example 37); type: in vivo; conditions: greenhouse, Example 37
Outline: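 Photo-labile dicamba ester emulsifiable concentrates sprayed post-emergence in the greenhouse on velvetleaf 10-15 cm tall at 140, 280, 420 and 560 g dicamba equivalent per hectare. Percent control scored three weeks after treatment.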

[7] = system: hemp sesbania; experiment: Field testing of emulsifiable concentrates, post-emergent control (Example 38); type: in vivo; conditions: 11 or 21 days after treatment
Text: (§2) Four dicamba esters, 1a, 2, 9, and 13a, were formulated as emulsifiable concentrates for field testing. All formulations contained 5% each of a alkylbenzene sulfonate calcium salt (Huntsman NANSA EVM 62/H or Akzo Nobel WITCONATE P-1220 EH) and castor oil ethoxylate (Huntsman SURFONIC CO-54) as the emulsifiers and Aromatic 200 (Exxon) or monochlorobenzene (MCB) as the solvent.
(§3) The esters were compared to the diglycolamine salt of dicamba (CLARITY™) for post-emergent control of three broadleaf weeds: velvetleaf, morning glory, and hemp sesbania. Rates of 280 and 420 g dicamba acid equivalent per hectare were used. […] Evaluations were conducted at 11 or 21 days after treatment. Locations and timing were identical for all formulations tested.

[8] = system: morning glory; experiment: as above; type: in vivo; conditions: 11 or 21 days after treatment
Text: as §2, §3

[9] = system: velvetleaf; experiment: as above; type: in vivo; conditions: 11 or 21 days after treatment
Text: as §2, §3

[10] = system: Euphorbia species; experiment: Field testing for post-emergent activity in the Southern Hemisphere (Example 39); type: in vivo; conditions: 9 as suspension concentrate, other esters as emulsifiable concentrates
Procedure: The primary weeds were Euphorbia species. Ester 9 was tested as a suspension concentrate using the formulation of Example 33 The other esters were tested as emulsifiable concentrates having the formulations shown in the table below. Akzo Nobel SPONTO EC 334 and SPONTO EC 336 along with SURFONIC CO-54 and […] (Huntsman) were used as emulsifiers and Aromatic 200 (A 200; Exxon) was used as the solvent. […] The diglycolamine salt of dicamba (CLARITYTM) was used as a comparator.

[11] = system: hemp sesbania; experiment: Field testing of emulsifiable concentrates, post-emergent control (Example 40); type: in vivo
Procedure: (§4) Three dicamba esters, 30a, 32a, and 36a, were formulated as emulsifiable concentrates for field testing. All surfactants are commercial materials from Stepan.
(§5) The formulations were tested in the field. Locations and timing were identical for the three esters, but differed slightly for the diglycolamine control. The esters were compared to the diglycolamine salt of dicamba (CLARITY™) for post-emergent control of three broadleaf weeds: velvetleaf, morning glory, and hemp sesbania. Rates of 280 and 560 g dicamba acid equivalent per hectare were used.

[12] = system: morning glory; experiment: as above; type: in vivo
Procedure: as §4, §5

[13] = system: velvetleaf; experiment: as above; type: in vivo
Procedure: as §4, §5

[14] = 280 g dicamba acid equivalent per hectare
[15] = 420 g dicamba acid equivalent per hectare
[16] = 560 g dicamba acid equivalent per hectare

average dicamba level from the five air samplers [5]: 11.1 ng/m^3
Structure (SMILES): COc1c(Cl)ccc(Cl)c1C(=O)O.NCCOCCO [Diglycolamine salt, diglycolamine salt of dicamba, reference compound]
% Control of velvetleaf, 140 g/ha ([1]; 140 g dicamba equivalent per hectare): 44% | % Control of velvetleaf, 280 g/ha ([1]; 280 g dicamba equivalent per hectare): 63% | % Control of velvetleaf, 420 g/ha ([1]; 420 g dicamba equivalent per hectare): 68% | % Control of velvetleaf, 560 g/ha ([1]; 560 g dicamba equivalent per hectare): 83% | % Control of velvetleaf, 140 g/ha ([2]; 140 g/ha): 54% | % Control of velvetleaf, 280 g/ha ([2]; 280 g/ha): 86% | % Control of velvetleaf, 420 g/ha ([2]; 420 g/ha): 96% | % Control of velvetleaf, 560 g/ha ([2]; 560 g/ha): 96% | Growth Stage [3]: 6 | average injury to soybeans [4]: 60% | % Control of velvetleaf, 140 g/ha ([6]; 140 g/ha): 43.3% | % Control of velvetleaf, 280 g/ha ([6]; 280 g/ha): 65.8% | % Control of velvetleaf, 420 g/ha ([6]; 420 g/ha): 87.5% | % Control of velvetleaf, 560 g/ha ([6]; 560 g/ha): 90.0% | % control, 280 g/ha, Hemp sesbania [7, 14]: 81% | % control, 420 g/ha, Hemp sesbania [7, 15]: 88% | % control, 280 g/ha, Morning glory [8, 14]: 100% | % control, 420 g/ha, Morning glory [8, 15]: 100% | % control, 280 g/ha, Velvetleaf [9, 14]: 87% | % control, 420 g/ha, Velvetleaf [9, 15]: 91% | % control, 0.25 lb/ac (0.28 kg/hectare) ([10]; 0.25 lb dicamba a.e. per acre): 53% | % control, 0.50 lb/ac (0.56 kg/hectare) ([10]; 0.50 lb dicamba a.e. per acre): 70% | % control 19 days after treatment, 280 g/ha, Hemp sesbania [11, 14]: 89 ± 5% | % control 19 days after treatment, 560 g/ha, Hemp sesbania [11, 16]: 96 ± 2% | % control 19 days after treatment, 280 g/ha, Morning glory [12, 14]: 89 ± 11% | % control 19 days after treatment, 560 g/ha, Morning glory [12, 16]: 94 ± 12% | % control 19 days after treatment, 280 g/ha, Velvetleaf [13, 14]: 78 ± 10% | % control 19 days after treatment, 560 g/ha, Velvetleaf [13, 16]: 91 ± 7%
